From PubChem BioAssay AID248 (DTP/NCI, 2004)
Where “and” joins values, the source holds several entries; their conditions need not be identical. Equal entries are not always repeated. Toxic doses and inconclusive results are not listed. No stated cut-off is given here; in the data, active means T/C of 150% or more; inactive means T/C below 125%.

Tested on: L1210 leukemia ip in BDF1 mice, survival T/C
Experiment: NCI In Vivo Anticancer Drug Screen. Data for tumor model L1210 Leukemia (intraperitoneal) in B6D2F1 (BDF1) mice
Conditions: higher = longer survival
Procedure, shortened: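 Each compound was tested against a transplantable tumor grown in mice. The endpoint was survival, with treated animals benchmarked against vehicle controls as a simple ratio.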

Measured: T/C

CN(Cc1cnc2nc(N)nc(N)c2n1)c1ccc(C(=O)N[C@@H](CCC(=O)O)C(=O)O)cc1
inactive: endpoint: mean survival time, dose: 0.02 mg/kg/injection, schedule: Q01DX Z (ip), vehicle: saline 94 % of control | endpoint: mean survival time, dose: 0.03 mg/kg/injection, schedule: Q#A X Z (ip), vehicle: saline 107 % of control | endpoint: mean survival time, dose: 0.08 mg/kg/injection, schedule: Q01DX009 (ip), vehicle: sodium bicarbonate 99 % of control and 108 % of control | endpoint: mean survival time, dose: 0.1 mg/kg/injection, schedule: Q03HX008 (ip), vehicle: sodium bicarbonate 105 % of control | endpoint: mean survival time, dose: 0.1 mg/kg/injection, schedule: Q## X008 (other), vehicle: sodium bicarbonate 105 % of control | endpoint: mean survival time, dose: 0.12 mg/kg/injection, schedule: Q01DX Z (ip), vehicle: saline 108 % of control | endpoint: mean survival time, dose: 0.13 mg/kg/injection, schedule: Q01DX Z (sc), vehicle: saline 110 % of control | endpoint: mean survival time, dose: 0.13 mg/kg/injection, schedule: Q03HX016 (ip), vehicle: other 107 % of control | endpoint: mean survival time, dose: 0.15 mg/kg/injection, schedule: Q03HX008 (ip), vehicle: sodium bicarbonate 109 % of control | endpoint: mean survival time, dose: 0.15 mg/kg/injection, schedule: Q## X008 (other), vehicle: sodium bicarbonate 109 % of control | endpoint: mean survival time, dose: 0.19 mg/kg/injection, schedule: Q01DX009 (ip), vehicle: sodium bicarbonate 102 % of control | endpoint: mean survival time, dose: 0.19 mg/kg/injection, schedule: Q## X Z (ip), vehicle: saline 102 % of control | endpoint: mean survival time, dose: 0.38 mg/kg/injection, schedule: Q## X Z (ip), vehicle: saline 111 % of control | endpoint: mean survival time, dose: 0.49 mg/kg/injection, schedule: Q03HX003 (ip), vehicle: other 108 % of control | endpoint: mean survival time, dose: 0.49 mg/kg/injection, schedule: Q03HX004 (ip), vehicle: other 104 % of control | endpoint: mean survival time, dose: 0.49 mg/kg/injection, schedule: Q03HX005 (ip), vehicle: other 107 % of control | endpoint: mean survival time, dose: 0.49 mg/kg/injection, schedule: Q03HX006 (ip), vehicle: other 110 % of control | endpoint: mean survival time, dose: 0.5 mg/kg/injection, schedule: Q01DX006 (iv), vehicle: saline 112 % of control | endpoint: mean survival time, dose: 0.5 mg/kg/injection, schedule: Q07DX003 (ip), vehicle: saline 107 % of control | endpoint: mean survival time, dose: 0.73 mg/kg/injection, schedule: Q01DX001 (ip), vehicle: other 94 % of control | endpoint: mean survival time, dose: 0.73 mg/kg/injection, schedule: Q03HX002 (ip), vehicle: other 104 % of control | endpoint: mean survival time, dose: 0.73 mg/kg/injection, schedule: Q03HX003 (ip), vehicle: other 102 % of control | endpoint: mean survival time, dose: 0.73 mg/kg/injection, schedule: Q03HX004 (ip), vehicle: other 107 % of control | endpoint: mean survival time, dose: 0.73 mg/kg/injection, schedule: Q03HX006 (ip), vehicle: other 109 % of control | endpoint: mean survival time, dose: 0.75 mg/kg/injection, schedule: Q## X Z (ip), vehicle: other 108 % of control | endpoint: mean survival time, dose: 0.9 mg/kg/injection, schedule: Q07DX003 (ip), vehicle: saline 102 % of control | endpoint: mean survival time, dose: 1.1 mg/kg/injection, schedule: Q01DX001 (ip), vehicle: other 95 % of control | endpoint: mean survival time, dose: 1.1 mg/kg/injection, schedule: Q03HX002 (ip), vehicle: other 112 % of control | endpoint: mean survival time, dose: 1.1 mg/kg/injection, schedule: Q03HX003 (ip), vehicle: other 107 % of control | endpoint: mean survival time, dose: 1.1 mg/kg/injection, schedule: Q03HX005 (ip), vehicle: other 109 % of control | endpoint: mean survival time, dose: 1.5 mg/kg/injection, schedule: Q01DX001 (ip), vehicle: water 109 % of control and 110 % of control | endpoint: mean survival time, dose: 1.62 mg/kg/injection, schedule: Q03HX002 (ip), vehicle: other 108 % of control | endpoint: mean survival time, dose: 1.62 mg/kg/injection, schedule: Q03HX003 (ip), vehicle: other 109 % of control | endpoint: mean survival time, dose: 1.8 mg/kg/injection, schedule: Q07DX003 (ip), vehicle: saline 107 % of control | endpoint: mean survival time, dose: 2.0 mg/kg/injection, schedule: Q01DX001 (ip), vehicle: saline 107 % of control | endpoint: mean survival time, dose: 2.25 mg/kg/injection, schedule: Q01DX001 (ip), vehicle: water 111 % of control | endpoint: mean survival time, dose: 2.25 mg/kg/injection, schedule: Q## X006 (ip), vehicle: other 108 % of control | endpoint: mean survival time, dose: 3.4 mg/kg/injection, schedule: Q01DX009 (ip), vehicle: sodium bicarbonate 96 % of control | endpoint: mean survival time, dose: 3.5 mg/kg/injection, schedule: Q07DX003 (ip), vehicle: saline 111 % of control | endpoint: mean survival time, dose: 4.0 mg/kg/injection, schedule: Q01DX009 (ip), vehicle: other 93 % of control | endpoint: mean survival time, dose: 4.0 mg/kg/injection, schedule: Q01DX009 (ip), vehicle: sodium bicarbonate 95 % of control | endpoint: mean survival time, dose: 4.0 mg/kg/injection, schedule: Q01DX Z (oral), vehicle: saline 109 % of control | endpoint: mean survival time, dose: 4.0 mg/kg/injection, schedule: Q01DX Z (sc), vehicle: saline 109 % of control | endpoint: mean survival time, dose: 4.0 mg/kg/injection, schedule: Q12HX007 (ip), vehicle: other 109 % of control | endpoint: mean survival time, dose: 4.0 mg/kg/injection, schedule: Q#A X Z (ip), vehicle: saline 112 % of control | endpoint: mean survival time, dose: 5.0 mg/kg/injection, schedule: Q01DX009 (ip), vehicle: sodium bicarbonate 105 % of control | endpoint: mean survival time, dose: 6.0 mg/kg/injection, schedule: Q12HX005 (ip), vehicle: other 104 % of control | endpoint: mean survival time, dose: 6.0 mg/kg/injection, schedule: Q12HX006 (ip), vehicle: other 102 % of control | endpoint: mean survival time, dose: 6.3 mg/kg/injection, schedule: Q01DX009 (ip), vehicle: saline 108 % of control | endpoint: mean survival time, dose: 7.2 mg/kg/injection, schedule: Q## X032 (ip), vehicle: water 102 % of control | endpoint: mean survival time, dose: 8.0 mg/kg/injection, schedule: Q01DX006 (ip), vehicle: other 110 % of control | endpoint: mean survival time, dose: 8.0 mg/kg/injection, schedule: Q01DX007 (ip), vehicle: other 111 % of control | endpoint: mean survival time, dose: 8.0 mg/kg/injection, schedule: Q01DX008 (ip), vehicle: other 100 % of control | endpoint: mean survival time, dose: 8.0 mg/kg/injection, schedule: Q01DX009 (oral), vehicle: other 107 % of control | endpoint: mean survival time, dose: 8.0 mg/kg/injection, schedule: Q01DX015 (ip), vehicle: other 102 % of control | endpoint: mean survival time, dose: 8.0 mg/kg/injection, schedule: Q01DX Z (oral), vehicle: saline 97 % of control | endpoint: mean survival time, dose: 9.0 mg/kg/injection, schedule: Q01DX005 (ip), vehicle: other 100 % of control | endpoint: mean survival time, dose: 9.0 mg/kg/injection, schedule: Q12HX004 (ip), vehicle: other 111 % of control | endpoint: mean survival time, dose: 9.0 mg/kg/injection, schedule: Q## X008 (ip), vehicle: other 102 % of control | endpoint: mean survival time, dose: 13.0 mg/kg/injection, schedule: Q01DX004 (ip), vehicle: other 101 % of control | endpoint: mean survival time, dose: 13.0 mg/kg/injection, schedule: Q01DX005 (ip), vehicle: other 102 % of control | endpoint: mean survival time, dose: 13.0 mg/kg/injection, schedule: Q03HX005 (ip), vehicle: other 100 % of control | endpoint: mean survival time, dose: 13.0 mg/kg/injection, schedule: Q12HX004 (ip), vehicle: other 94 % of control | endpoint: mean survival time, dose: 13.5 mg/kg/injection, schedule: Q## X008 (ip), vehicle: other 93 % of control | endpoint: mean survival time, dose: 16.0 mg/kg/injection, schedule: Q03HX008 (ip), vehicle: other 98 % of control | endpoint: mean survival time, dose: 20.0 mg/kg/injection, schedule: Q01DX003 (ip), vehicle: other 101 % of control | endpoint: mean survival time, dose: 20.0 mg/kg/injection, schedule: Q## X008 (ip), vehicle: other 102 % of control | endpoint: mean survival time, dose: 30.0 mg/kg/injection, schedule: Q01DX003 (ip), vehicle: other 102 % of control | endpoint: mean survival time, dose: 30.0 mg/kg/injection, schedule: Q04DX004 (ip), vehicle: other 96 % of control | endpoint: mean survival time, dose: 32.0 mg/kg/injection, schedule: Q01DX001 (sc), vehicle: other 112 % of control | endpoint: mean survival time, dose: 40.0 mg/kg/injection, schedule: Q04DX003 (ip), vehicle: sodium bicarbonate 95 % of control | endpoint: mean survival time, dose: 45.0 mg/kg/injection, schedule: Q01DX002 (ip), vehicle: other 109 % of control | endpoint: mean survival time, dose: 67.0 mg/kg/injection, schedule: Q01DX002 (ip), vehicle: other 98 % of control | endpoint: mean survival time, dose: 67.0 mg/kg/injection, schedule: Q12HX002 (ip), vehicle: other 100 % of control | endpoint: mean survival time, dose: 70.0 mg/kg/injection, schedule: Q04DX002 (ip), vehicle: sodium bicarbonate 99 % of control | endpoint: mean survival time, dose: 112.0 mg/kg/injection, schedule: Q07DX003 (ip), vehicle: saline 97 % of control | endpoint: mean survival time, dose: 128.0 mg/kg/injection, schedule: Q01DX001 (oral), vehicle: other 108 % of control | endpoint: mean survival time, dose: 150.0 mg/kg/injection, schedule: Q03HX002 (ip), vehicle: other 93 % of control | endpoint: mean survival time, dose: 200.0 mg/kg/injection, schedule: Q04DX002 (ip), vehicle: saline 111 % of control | endpoint: mean survival time, dose: 250.0 mg/kg/injection, schedule: Q01DX001 (ip), vehicle: water 112 % of control | endpoint: mean survival time, dose: 256.0 mg/kg/injection, schedule: Q01DX001 (oral), vehicle: other 97 % of control | endpoint: mean survival time, dose: 256.0 mg/kg/injection, schedule: Q01DX001 (sc), vehicle: other 98 % of control | endpoint: mean survival time, dose: 300.0 mg/kg/injection, schedule: Q01DX001 (ip), vehicle: water 105 % of control | endpoint: mean survival time, dose: 375.0 mg/kg/injection, schedule: Q01DX001 (ip), vehicle: water 101 % of control | endpoint: mean survival time, dose: 512.0 mg/kg/injection, schedule: Q01DX001 (oral), vehicle: other 111 % of control | endpoint: mean survival time, dose: 37.5 micrograms/kg/injection, schedule: Q01DX009 (ip), vehicle: saline 104 % of control and 110 % of control | endpoint: mean survival time, dose: 70.0 micrograms/kg/injection, schedule: Q01DX Z (ip), vehicle: carboxymethylcellulose (CMC) 97 % of control | endpoint: mean survival time, dose: 75.0 micrograms/kg/injection, schedule: Q01DX009 (ip), vehicle: saline 107 % of control and 110 % of control | endpoint: mean survival time, dose: 100.0 micrograms/kg/injection, schedule: Q01DX015 (ip), vehicle: other 105 % of control | endpoint: mean survival time, dose: 140.0 micrograms/kg/injection, schedule: Q01DX Z (ip), vehicle: carboxymethylcellulose (CMC) 110 % of control | endpoint: mean survival time, dose: 150.0 micrograms/kg/injection, schedule: Q01DX015 (ip), vehicle: other 108 % of control | endpoint: mean survival time, dose: 6000.0 micrograms/kg/injection, schedule: Q01DX009 (ip), vehicle: Klucel (hydroxypropylcellulose) (HPC) 100 % of control | endpoint: median survival time, dose: 5.0 mg/kg/injection, schedule: Q01DX009 (ip), vehicle: other 110 % of control | endpoint: median survival time, dose: 8.0 mg/kg/injection, schedule: Q01DX001 (ip), vehicle: sodium bicarbonate 111 % of control | endpoint: median survival time, dose: 32.0 mg/kg/injection, schedule: Q01DX001 (ip), vehicle: sodium bicarbonate 110 % of control
